Earlier results as cited in US5827842A, “14α, 17α-C2 -bridged norprogesterone derivatives” (Schering Aktiengesellschaft, priority 1994, dated 1998).

Test system: endometrium

## CC(=O)[C@]12CC[C@@]3(CC1)[C@@H]1CCC4=CC(=O)CC[C@@H]4[C@H]1CC[C@]23C [14,17-Ethano-19-norpregn-4-ene-3,20-dione]
J. Med. Chem. 16, 270 (1973)
  factor between subcutaneous and peroral action: over 20
Oral administration
  gestagenic action in the Clauberg Test after oral administration: only a slight effect
Subcutaneous administration
  gestagenic action in the Clauberg Test after subcutaneous administration: good effect
